This note sets out measurements from ChEMBL document CHEMBL1201862, “PubChem BioAssay data set” (2004).

SMILES strings stand for the structures.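 Each compound was tested at five concentrations against cells in 96-well plates for 48 hours. At the GI50, growth is halved.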 The source made the active and inactive calls. No stated cut-off is given here; in the data, active = GI50 up to about 1.1 µM and inactive = higher.

Common to all, as to test: DTP human tumour cell line panel, 48 h
The test system of assay [1] is SK-MEL-28.
Assay [2] relates to RPMI-8226.
Assay [3] relates to HCC 2998.
The subject of assay [4] is U-251.
Assay [5] concerns ACHN.
Assay [6] relates to SNB-75.
In assay [7] the test system is LOX IMVI.
In assay [8] the test system is KM12.
In assay [9] the test system is UO-31.
Assay [10] has as its system IGROV-1.
The subject of assay [11] is CAKI-1.
For assay [12], the system named is Malme-3M.
Assay [13] relates to SNB-19.
In assay [14] the test system is SF-268.
Assay [15] has as its system NCI-H23.
For assay [16], the system named is HL-60.

What is called GI50 is the concentration giving 50% growth inhibition. For `O=c1c2cc(Br)ccc2[nH]c(=S)n1-c1ccccc1`, the GI50 in [1], in assay [2], in [3], in assay [4], in assay [5] and in assay [6] was > 100 µM (inactive) throughout. For the same compound, the GI50 in [7], in assay [8], in assay [9], in assay [10], in assay [11] and in [12] was > 100 µM (inactive) each time. The GI50 in assay [13], in assay [14] and in assay [15] was > 100 µM (inactive) in each case.

On to `CC(Oc1ccc2c(-c3ccc(Cl)cc3)cc(=O)oc2c1)C(=O)O` (stereo unspecified), for which the GI50 in assay [1], in [3], in assay [4], in assay [5], in assay [6] and in [7] was > 100 µM (inactive) in each case. In addition, the GI50 in assay [8], in assay [9], in assay [10], in assay [11], in assay [12] and in assay [13] was > 100 µM (inactive) each time. The GI50 in assay [14], in [15] and in assay [16] was > 100 µM (inactive) each time.

Regarding `COC(=O)C12CC(C3CC31)C1CC12` (stereo unspecified), the GI50 in assay [1], in assay [2], in assay [3], in assay [4], in assay [5] and in assay [7] was > 100 µM (inactive) each time. The GI50 in [9], in [10], in assay [11], in [12], in assay [13] and in assay [14] was > 100 µM (inactive) throughout. In addition, the GI50 in assay [15] and in [16] was > 100 µM (inactive) throughout.

On to `CC(C)(C)N/N=C(\C(=O)Nc1cccc(Cl)c1)C1C(=O)Nc2ccccc2[S+]1[O-]` (stereo unspecified), for which the GI50 in assay [1], in assay [3], in assay [5], in [6], in assay [7] and in [8] was > 100 µM (inactive) throughout. Further, the GI50 in assay [9] was > 100 µM (inactive); in [10] it was > 100 µM (inactive); in assay [11], > 100 µM (inactive); in [12], 21.6 µM (inactive); in [13] it was > 100 µM (inactive); in [14] it was > 100 µM (inactive). Also, the GI50 in assay [15] and in assay [16] was > 100 µM (inactive) each time.

For `CCOC(=O)NC(=O)c1cn(C(CC)COC(=O)NCCCCCCNC(=O)OCC(CC)n2cc(C(=O)NC(=O)OCC)c(=O)[nH]c2=O)c(=O)[nH]c1=O` (stereo unspecified), the GI50 in assay [1], in assay [2], in [3], in assay [4], in assay [5] and in assay [6] was > 100 µM (inactive) each time. For the same compound, the GI50 in assay [7], in assay [8], in assay [9], in [10], in assay [11] and in [12] was > 100 µM (inactive) in each case. The GI50 in [13], in assay [14] and in assay [16] was > 100 µM (inactive) each time.

For `O=c1n(-c2ccccc2)c(=O)n2n1C1C=CC2C2C(C1)C2(Cl)Cl` (stereo unspecified), the GI50 in assay [3], in assay [4], in assay [5], in assay [6], in assay [7] and in assay [8] was > 100 µM (inactive) throughout. Further, the GI50 in assay [9], in assay [10], in assay [11], in [12], in assay [13] and in assay [14] was > 100 µM (inactive) in each case. In addition, in [16], the GI50 was > 100 µM (inactive).

`COc1ccc2ccc3c(c2c1)CN1CCc2cc(OC)c(OC)cc2C1C3` (stereo unspecified): the GI50 in assay [1] is > 100 µM (inactive); in assay [2], > 100 µM (inactive); in [3], > 100 µM (inactive); in [4], > 100 µM (inactive); in [5], > 100 µM (inactive); in assay [6], 28.1 µM (inactive). In addition, the GI50 in assay [7], in assay [8], in [9], in assay [10], in assay [11] and in [12] was > 100 µM (inactive) each time. Further, the GI50 in assay [13], in assay [15] and in [16] was > 100 µM (inactive) in each case.

As to `CC1=C(C(=O)Nc2ccccc2)C(c2ccccc2)C(C(=O)Nc2ccccc2)=C(C)N1`, the GI50 was 55.8 µM (inactive) in assay [1]; 31 µM (inactive) in assay [3]; 48.1 µM (inactive) in assay [4]; 17.6 µM (inactive) in assay [5]; 37.3 µM (inactive) in [6]; 17.3 µM (inactive) in [8]. In addition, the GI50 in assay [9] was 71.6 µM (inactive); in assay [10], 75.9 µM (inactive); in [11] it was 4.74 µM (inactive); in assay [12], > 100 µM (inactive); in assay [13], 94.4 µM (inactive); in [14], 42.5 µM (inactive). Moreover, the GI50 in assay [15] is 43.1 µM (inactive); in [16], 16.3 µM (inactive).

`CC(C)(C)c1cc(C(O)(C(F)(F)F)C(F)(F)F)c2c(c1)C(C(F)(F)F)(C(F)(F)F)OC(C)(C(C)(C)C)N2` (stereo unspecified): the GI50 in assay [1] was 8.28 µM (inactive); in [2] it was 2.57 µM (inactive); in [3] it was 6.56 µM (inactive); in assay [4], 2.69 µM (inactive); in assay [5] it was 3.06 µM (inactive); in [6], 2 µM (inactive). For the same compound, the GI50 in assay [8] is 3.94 µM (inactive); in [9], 2.97 µM (inactive); in assay [10], 4.78 µM (inactive); in [11] it was 3.04 µM (inactive); in assay [12], 6.65 µM (inactive); in assay [13], 5.41 µM (inactive). The GI50 in assay [15] was 2 µM (inactive).

As to `O=C1CCCCCCC2=C1C(Sc1ccccc1)CC2` (stereo unspecified), the GI50 in [1] was 32.4 µM (inactive); in [2], 30.3 µM (inactive); in [4], 37.1 µM (inactive); in [5], 36.1 µM (inactive); in assay [6] it was 21.1 µM (inactive); in assay [7] it was 15.8 µM (inactive). In addition, the GI50 was 23.2 µM (inactive) in assay [8]; 18.8 µM (inactive) in assay [9]; > 100 µM (inactive) in assay [12]; 40.3 µM (inactive) in assay [13]; 19.9 µM (inactive) in [14]; 33.9 µM (inactive) in assay [15]. Further, the GI50 in [16] is 12.8 µM (inactive).

Consider `CN1C(=O)CC2(C)c3cc(O)cc(Br)c3N(C)C12` (stereo unspecified), for which the GI50 in [1] was > 100 µM (inactive); in assay [3], > 100 µM (inactive); in assay [4], > 100 µM (inactive); in assay [5], > 100 µM (inactive); in [6] it was 30.8 µM (inactive); in assay [7], > 100 µM (inactive). Besides, the GI50 in assay [8] is > 100 µM (inactive); in [9], 57.7 µM (inactive); in assay [10], > 100 µM (inactive); in [12], > 100 µM (inactive); in [13], > 100 µM (inactive); in [14], > 100 µM (inactive). For the same compound, the GI50 in assay [15] is > 100 µM (inactive).

For `CCCCCCCCCCCCC(Br)C(=O)SCCNC(=O)CCNC(=O)[C@@H](O)C(C)(C)COP(=O)(O)OP(=O)(O)OCC1OC(n2cnc3c(N)ncnc32)C(O)C1OP(=O)(O)O` (stereo partly specified), the GI50 is > 56.5 µM (inactive) in [1]; > 56.5 µM (inactive) in assay [3]; 33.7 µM (inactive) in assay [4]; > 56.5 µM (inactive) in [5]; > 56.5 µM (inactive) in assay [6]; 28.1 µM (inactive) in assay [7]. For the same compound, the GI50 in assay [8], in assay [9], in assay [10], in assay [12], in assay [13] and in [14] was > 56.5 µM (inactive) throughout. The GI50 in assay [15] and in assay [16] was > 56.5 µM (inactive) each time.

For `C/C(=C\C(C[C@](C)(O)C(O)CCC#C[Si](C)(C)C)S(=O)(=O)c1ccccc1)CC/C=C/CO[Si](C)(C)C(C)(C)C` (stereo partly specified), the GI50 in [2] was 10.1 µM (inactive); in assay [3] it was 21 µM (inactive); in assay [4], 13.4 µM (inactive); in assay [5], 16 µM (inactive); in assay [7], 13.2 µM (inactive); in assay [8], 16.8 µM (inactive). In addition, the GI50 is 21.9 µM (inactive) in assay [9]; 20.8 µM (inactive) in assay [10]; 18.6 µM (inactive) in assay [11]; 20.7 µM (inactive) in assay [12]; 19.8 µM (inactive) in [13]; 18.2 µM (inactive) in assay [15]. For the same compound, the GI50 in assay [16] is 14.9 µM (inactive).

In the case of `C=C1C(=O)C23C(CC(OC(C)=O)C1[C@@H]2OC(C)=O)C1(C)C(OC(C)=O)CCC(C)(C)C1C[C@@H]3OC(C)=O` (stereo partly specified), the GI50 in [1] is 1.87 µM (inactive); in assay [2], 1.48 µM (inactive); in [3] it was 1.84 µM (inactive); in assay [4], 1.55 µM (inactive); in assay [5], 1.56 µM (inactive); in assay [6], 1.52 µM (inactive). The GI50 in assay [7] was 1.24 µM (inactive); in [8], 1.91 µM (inactive); in assay [9] it was 1.8 µM (inactive); in assay [10], 1.45 µM (inactive); in [11] it was 0.653 µM (active); in [12], 1.55 µM (inactive). The GI50 is 1.86 µM (inactive) in assay [13], 1.56 µM (inactive) in assay [14] and 0.0771 µM (active) in assay [16].
